Several values for one entry are separate records, joined by “and”; a condition that tells them apart may be missing. Equal values may be shown once. Marks after values point to notes of the source that are not given here.
Tests used:
[1] = system: IL-2 production by spleen cells; assay: In vitro OVA-stimulated IL-2 production by spleen cells from OVA-sensitized mice; type: cell-based, mouse; conditions: for Amount of IL-2: spleen cells, 1 mg/ml OVA, 96 hours, ELISA
Procedure: (§1) OVA-sensitized animals were prepared in accordance with the method of Nagai et al. (the method described in Example 2). Specifically, 0.5 ml of physiological saline containing 50 μg of OVA and 1 mg of aluminum hydroxide gel as adjuvant was injected twice at 12 day interval into the abdominal cavity of each of male Balb/c mice of 7 weeks of age for active sensitization. After 22, 26 and 30 days of the initial sensitization, each animal was forced to inhale 1% OVA solution for 30 minutes using an ultrasonic nebulizer. After 8 hours of the final antigen inhalation, the spleen was collected to prepare spleen cells. The spleen cells were cultured for 96 hours in the presence of 1 mg/ml of OVA, and the cytokine released in the culture supernatant was determined by ELISA method. Each of the compounds to be tested was added to a final concentration of 0.3, 1, 3, 10 or 30 μM simultaneously with OVA.

[2] = system: eosinophils infiltration in BALF; assay: BALF eosinophils infiltration in mouse allergic airway inflammation model; type: in vivo
Procedure: (§2) The test was carried out in accordance with the method of Nagai et al. (see H. Nagai, H. Takeda, S. Yamaguchi, H. Tanaka, A. Matsuo and N. Inagaki, “The effect of thromboxane A2 receptor antagonist BAY-u-3405 on experimental allergic reactions”, Prostaglandins, 50, 75-87, 1995). Specifically, 0.5 ml of physiological saline containing 50 μg of OVA and 1 mg of aluminum hydroxide gel as adjuvant was injected twice at 12 day interval into the abdominal cavity of each of male Balb/c mice of 7 weeks of age for active sensitization. After 22, 26 and 30 days of the initial sensitization, each animal was forced to inhale 1% OVA solution for 30 minutes using an ultrasonic nebulizer to prepare a mouse allergic airway inflammation model. Total blood and BALF were collected 8 hours after the final antigen inhalation. The collected blood was allowed to stand overnight at room temperature, and then centrifuged at 300 rpm for 15 minutes, and the light yellow transparent fraction separated into the supematant was used as an antiserum. The IgE antibody titer in the antiserum was measured by 24 hours' heterogeneous (rat) PCA. On the other hand, the collected BALF supernatant was used as a sample for cytokine measurement, and the cell pellets after preparation were counted as an index of the infiltration of inflammatory cells. Each compound to be tested was continuously administered 5 days starting from the day before each sensitization and 10 days starting from the day before inhalation, at a dose of 10, 30 or 100 mg/kg in the case of oral administration or 10 mg/kg in the case of intraperitoneal or intravenous injection. Results of the measurement of IgE antibody titer in serum and amount of IL-5 and the number of eosinophils in BALF are shown in Tables 10, 11 and 12, respectively. The treatments in each group shown in each table are as follows.
(§3) Physiological saline: physiological saline stimulation+vehicle administration
(§4) Control: OVA stimulation+vehicle administration
(§5) Compound (1): OVA stimulation+Compound (1) administration

[3] = system: DNFB-induced mouse ear edema; assay: DNFB-induced mouse ear edema; type: in vivo; conditions: for Increasing ratio of auricle thickness: 1 hour after reaction induction
Procedure: Anti-DNP-IgE antibody (3 μg/body) was administered from the caudal vein of each of female Balb/c mice of 7 weeks of age, and the reaction was induced by applying 25 μl of a 0.15% DNFB-containing acetone:olive oil (3:1) mixed solution (hereinafter referred to as “antigen”) to each of both sides of the left and right auricles 24 hours after the administration. Each compound to be tested was administered orally or intravenously 1 hour before the reaction induction. Before the reaction induction and 1 hour after the reaction induction, auricle thickness was measured using a dial sickness gage, and the average value of the left and right auricle thicknesses was used as the measured value at respective time. The value was shown by the increasing ratio of the auricle thickness from before the reaction induction. In Table 9, treatments in each group are as follows.
Vehicle: anti-DNP-IgE antibody administration+vehicle application+vehicle administration
Control: anti-DNP-IgE antibody administration+antigen application+vehicle administration
Compound (1): anti-DNP-IgE antibody administration+antigen application+Compound (1) administration

SD rats = assay: Acute toxicity LD50, intravenous injection; type: in vivo, rat
Procedure: The toxicity of the compounds of the present invention of the formula (I) is very low and therefore, the compounds may be considered safe for pharmaceutical use. For example, LD50 of 2-deoxy-2-[3S-(9-phenylnonanoyloxy)tetradecanoyl]-amino-3-O-(9-phenylnonanoyl)-4-O-sulfo-D-glucopyranose sodium salt (The compound (1) described hereinafter) is 60-70 mg/kg on SD rats were administrated by intravenous injection.

[4] = system: IL-4 production by spleen cells; assay: In vitro OVA-stimulated IL-4 production by spleen cells from OVA-sensitized mice; type: cell-based, mouse; conditions: for Amount of IL-4: Table 16, OVA-stimulated IL-4 production, spleen cells, 96 hours, ELISA
Procedure: as §1

[5] = system: IFN-γ production by spleen cells; assay: In vitro OVA-stimulated IFN-γ production by spleen cells from OVA-sensitized mice; type: cell-based, mouse; conditions: for Amount of IFN-γ: Table 15, OVA-stimulated IFN-γ production, spleen cells, 96 hours, ELISA
Procedure: as §1

IgE antibody production = assay: Serum IgE antibody production in mouse allergic airway inflammation model; type: in vivo; conditions: 24 hours' heterogeneous (rat) PCA
Procedure: as §2, §3, §4, §5

[6] = system: Compound 48/80-induced scratching behavior; assay: Mouse Compound 48/80-induced itch model; type: in vivo; conditions: for The number of times of scratching: 20 minutes after injection of Compound 48/80
Procedure: This test was carried out in accordance with the method of Kubo et al. (Michinori Kubo, Hideaki Matsuda, Takeshi Itadaki, Yasuko Ido and Masayuki Yoshikawa, Studies on herb medicine and jifushi (first report), Anti-itching activity of 70% ethanol extract of jifushi and screening of effective component, Journal of the Pharmaceutical Society of Japan, 117(4), 193-201, 1997). Specifically, 0.1 ml of physiological saline containing Compound 48/80 (manufactured by Sigma Chemical Company) (100 μg) was administered subcutaneously into the dorsal part of each male ddy mouse of 6 to 7 weeks of age to induce scratching behavior. The scratching behavior was judged by measuring the number of times of scratching for 20 minutes immediately after the injection, by setting the behavior of each mouse to scratch the injected part with a hind leg for 1 second or more as one. Each compound to be tested was administered intravenously 1 hour before the induction.

IL-5 production in BALF = assay: BALF IL-5 production in mouse allergic airway inflammation model; type: in vivo
Procedure: as §2, §3, §4, §5

[7] = 0.3 to 30 μM, spleen cells from OVA-sensitized mice

## CCCCCCCCCCC[C@@H](CC(=O)N[C@H]1C(O)O[C@H](CO)[C@@H](OS(=O)(=O)[O-])[C@@H]1OC(=O)CCCCCCCCc1ccccc1)OC(=O)CCCCCCCCc1ccccc1.[Na+] (stereo partly drawn) [Compound (1), 2-deoxy-2-[3S-(9-phenylnonanoyloxy)tetradecanoyl]amino-3-O-(9-phenylnonanoyl)-4-O-sulfo-D-glucopyranose sodium]
[1]; 0.3 μM
  Amount of IL-2: 48.4 ± 3.0 pg/mL
[1]; 1 μM
  Amount of IL-2: 36.1 ± 5.0 pg/mL
[1]; 3 μM
  Amount of IL-2: 22.9 ± 2.9 pg/mL
[1]; 10 μM
  Amount of IL-2: 11.7 ± 2.2 pg/mL
[1]; 30 μM
  Amount of IL-2: 4.3 ± 1.7 pg/mL
[1]; [7]
  Effect on in vitro OVA-stimulated IL-2 production: significantly inhibited
[2]; 10 mg/kg i.p.
  The number of eosinophils in BALF: 0.0 ± 0.0*^b × 10^5 cells/BALF
[2]; 10 mg/kg i.v.
  The number of eosinophils in BALF: 0.1 ± 0.0*^b × 10^5 cells/BALF
[2]; 10 mg/kg p.o.
  The number of eosinophils in BALF: 1.4 ± 0.4 × 10^5 cells/BALF
[2]; 30 mg/kg p.o.
  The number of eosinophils in BALF: 0.7 ± 0.2 × 10^5 cells/BALF
[2]; 100 mg/kg p.o.
  The number of eosinophils in BALF: 0.3 ± 0.1 × 10^5 cells/BALF
[3]; 10 mg/kg i.v.
  Increasing ratio of auricle thickness: 16.4 ± 1.9%
[3]; 10 mg/kg p.o.
  Increasing ratio of auricle thickness: 14.3 ± 1.8%
[3]; 40 mg/kg oral administration, versus control
  Inhibition of increase in the auricle thickness: 45%
[3]; 40 mg/kg p.o.
  Increasing ratio of auricle thickness: 10.2% and 10.2 ± 1.6 %
SD rats
  LD50: 60 to 70 mg/kg
[4]; 3 to 30 μM, spleen cells from OVA-sensitized mice
  Effect on in vitro OVA-stimulated IL-4 production: significantly inhibited
[4]; 0.3 μM
  Amount of IL-4: 253.0 ± 45.9 pg/mL
[4]; 1 μM
  Amount of IL-4: 203.3 ± 37.3 pg/mL
[4]; 3 μM
  Amount of IL-4: 139.0 ± 19.3 pg/mL
[4]; 10 μM
  Amount of IL-4: 67.9 ± 8.1 pg/mL
[4]; 30 μM
  Amount of IL-4: 12.8 ± 1.1 pg/mL
[5]; [7]
  Effect on in vitro OVA-stimulated IFN-γ production: significantly inhibited
[5]; 0.3 μM
  Amount of IFN-γ: 1462.9 ± 202.8 pg/mL
[5]; 1 μM
  Amount of IFN-γ: 658.1 ± 66.6 pg/mL
[5]; 3 μM
  Amount of IFN-γ: 457.6 ± 51.0 pg/mL
[5]; 10 μM
  Amount of IFN-γ: 349.7 ± 81.0 pg/mL
[5]; 30 μM
  Amount of IFN-γ: 160.5 ± 42.9 pg/mL
IgE antibody production; 10 mg/kg i.p.
  Serum IgE antibody titer: 69.3 ± 17.6***^b
IgE antibody production; 10 mg/kg i.v.
  Serum IgE antibody titer: 20.0 ± 3.7***^b
IgE antibody production; 10 mg/kg p.o.
  Serum IgE antibody titer: 304.0 ± 68.2
IgE antibody production; 30 mg/kg p.o.
  Serum IgE antibody titer: 176.0 ± 35.2
IgE antibody production; 100 mg/kg p.o.
  Serum IgE antibody titer: 120.0 ± 30.1
[6]; 1 mg/kg intravenously
  The number of times of scratching: 68.6 ± 18.8
[6]; 3 mg/kg intravenously
  The number of times of scratching: 61.3 ± 9.9
[6]; 10 mg/kg intravenously
  The number of times of scratching: 26.8 ± 16.8
[6]; 30 mg/kg intravenously
  The number of times of scratching: 6.3 ± 4.4
[6]; 10 or 30 mg/kg intravenously
  Effect on scratching behavior: significantly reduced scratching behavior
IL-5 production in BALF; 10 mg/kg i.p.
  Amount of IL-5 in BALF: 9.2 ± 1.5**^b pg/BALF
IL-5 production in BALF; 10 mg/kg i.v.
  Amount of IL-5 in BALF: 16.2 ± 3.8**^b pg/BALF
IL-5 production in BALF; 10 mg/kg p.o.
  Amount of IL-5 in BALF: 65.1 ± 15.9 pg/BALF
IL-5 production in BALF; 30 mg/kg p.o.
  Amount of IL-5 in BALF: 50.8 ± 13.7 pg/BALF
IL-5 production in BALF; 100 mg/kg p.o.
  Amount of IL-5 in BALF: 26.7 ± 7.5 pg/BALF

— US6495678B1, “Immunosuppressant containing glucopyranose derivative as active ingredient” (Ono Pharmaceutical Co., Ltd., priority 1998, dated 2002)
